This passage reports inhibition results from ChEMBL document CHEMBL1150831, “Immunosuppressive sesquiterpene alkaloids from Tripterygium wilfordii” (2001).

Calls of active or inactive are those of the source. The rule behind the calls is not given here.

Holding throughout (type): functional
In assay [1] the test system is PBMC. The assay can be described thus: Immunosuppressive activity in human PBMC assessed as inhibition of LPS-stimulated IL4 production at 10 ug/mL after 18 to 24 hrs by ELISA. On the technique in general: In an ELISA, binding on a coated surface is turned into a signal by an enzyme label.
Assay [2] deals with PBMC. The assay can be described thus: Immunosuppressive activity in human PBMC assessed as inhibition of LPS-stimulated TNFalpha production at 10 ug/mL after 18 to 24 hrs by ELISA.
Assay [3] concerns PBMC. Briefly: Immunosuppressive activity in human PBMC assessed as inhibition of LPS-stimulated IL1-beta production at 10 ug/mL after 18 to 24 hrs by ELISA.
For assay [4], the system named is PBMC. The assay can be described thus: Immunosuppressive activity in human PBMC assessed as inhibition of LPS-stimulated IL8 production at 10 ug/mL after 18 to 24 hrs by ELISA.
For assay [5], the system named is PBMC. The assay can be described thus: Immunosuppressive activity in human PBMC assessed as inhibition of LPS-stimulated IFN-gamma production at 10 ug/mL after 18 to 24 hrs by ELISA.
Assay [6] concerns PBMC. Briefly: Immunosuppressive activity in human PBMC assessed as inhibition of LPS-stimulated IL2 production at 10 ug/mL after 18 to 24 hrs by ELISA.

The term inhibition denotes the change of the read-out against control, counted positive when it falls.

Turning to `CC(=O)OC[C@]12[C@H](OC(C)=O)[C@H](OC(C)=O)[C@@H]3[C@@H](OC(=O)c4ccccc4)[C@@]14O[C@@]3(C)COC(=O)c1cccnc1CC[C@@](C)(OC(=O)c1ccccc1)C(=O)O[C@@H]([C@H](OC(C)=O)[C@@H]2OC(C)=O)[C@]4(C)O` [WILFORNINE C], the inhibition at 10 µg/mL in the assay with PBMC [1] was 39%; with PBMC [2], -11%; with PBMC [3], -6%; with PBMC [4], -8%; in the assay on PBMC [5], 32%; in the assay on PBMC [6] it was 51%.

Take `CC(=O)OC[C@]12[C@H](OC(C)=O)[C@H](OC(C)=O)[C@@H]3[C@@H](OC(C)=O)[C@@]14O[C@@]3(C)COC(=O)c1cccnc1CC[C@H](C)C(=O)O[C@@H]([C@H](OC(=O)c1ccccc1)[C@@H]2OC(C)=O)[C@]4(C)O`: the inhibition at 10 µg/mL amounted to 16% in the assay on PBMC [1]; 79% in the assay on PBMC [2]; 64% in the assay with PBMC [3]; 1% in the assay with PBMC [4]; 41% in the assay on PBMC [5]; 67% with PBMC [6].

As to `CC(=O)OC[C@]12[C@H](OC(C)=O)[C@H](OC(C)=O)[C@@H]3[C@@H](OC(C)=O)[C@@]14O[C@@]3(C)COC(=O)c1cccnc1CC[C@H](C)C(=O)O[C@@H]([C@H](OC(=O)c1ccco1)[C@@H]2OC(C)=O)[C@]4(C)O`, the inhibition at 10 µg/mL with PBMC [1] was -53%; in the assay with PBMC [2], 64%; with PBMC [3], 53%; with PBMC [4], 7%; with PBMC [5], 4%; with PBMC [6], 22%.

`CC(=O)OC[C@]12[C@H](OC(C)=O)[C@H](OC(C)=O)[C@@H]3[C@@H](OC(=O)c4ccccc4)[C@@]14O[C@@]3(C)COC(=O)c1cccnc1C(C)C(C)C(=O)O[C@@H]([C@H](OC(=O)c1cccnc1)[C@@H]2OC(C)=O)[C@]4(C)O` (stereo partly drawn) [HYPONINE D]: the inhibition at 10 µg/mL is 66% in the assay with PBMC [1]; -9% in the assay on PBMC [2]; 7% in the assay on PBMC [3]; -15% with PBMC [4]; 13% in the assay on PBMC [5]; 45% with PBMC [6].

Take `CC(=O)OC[C@]12[C@H](OC(C)=O)[C@H](OC(C)=O)[C@@H]3[C@@H](O)[C@@]14O[C@@]3(C)COC(=O)c1cccnc1CC[C@@](C)(OC(=O)c1ccccc1)C(=O)O[C@@H]([C@H](OC(C)=O)[C@@H]2OC(C)=O)[C@]4(C)O` [WILFORNINE B]: the inhibition at 10 µg/mL with PBMC [1] is 100%; in the assay with PBMC [2], -6%; in the assay on PBMC [3], -3%; in the assay on PBMC [4], -23%; with PBMC [5], 7%; with PBMC [6], 22%.

Consider `CC(=O)OC[C@]12[C@H](OC(C)=O)C(=O)[C@@H]3[C@@H](OC(C)=O)[C@@]14O[C@@]3(C)COC(=O)c1cccnc1CC[C@@](C)(O)C(=O)O[C@@H]([C@H](OC(C)=O)[C@@H]2OC(C)=O)[C@]4(C)O`, for which the inhibition entry in the assay with PBMC [1], in the assay on PBMC [2], in the assay on PBMC [3], in the assay on PBMC [4], with PBMC [5] and with PBMC [6] was “inactive” throughout.

In the case of `CC(=O)OC[C@]12[C@H](OC(C)=O)C(=O)[C@@H]3[C@@H](OC(C)=O)[C@@]14O[C@@]3(C)COC(=O)c1cnccc1CCC(C)(O)C(=O)O[C@@H]([C@H](OC(C)=O)[C@@H]2OC(C)=O)[C@]4(C)O` (stereo partly drawn), the inhibition at 10 µg/mL in the assay on PBMC [1] was 77%; in the assay with PBMC [2] it was 10%; with PBMC [3], 18%; in the assay with PBMC [4], 64%; with PBMC [5] it was 62%; with PBMC [6], 47%.

As to `CC(=O)OC[C@]12[C@H](OC(C)=O)[C@H](OC(C)=O)[C@@H]3[C@@H](OC(=O)c4ccccc4)[C@@]14O[C@@]3(C)COC(=O)c1cccnc1C(C)C(C)C(=O)O[C@@H]([C@H](O)[C@@H]2OC(C)=O)[C@]4(C)O` (stereo partly drawn), the inhibition entry in the assay with PBMC [1], in the assay on PBMC [2], with PBMC [3], in the assay with PBMC [4], in the assay with PBMC [5] and in the assay on PBMC [6] was “inactive” each time.

Turning to `CC(=O)OC[C@]12[C@H](OC(C)=O)[C@H](OC(C)=O)[C@@H]3[C@@H](OC(=O)c4ccccc4)[C@@]14O[C@@]3(C)COC(=O)c1cccnc1C(C)C(C)C(=O)O[C@@H]([C@H](OC(C)=O)[C@@H]2OC(=O)c1ccccc1)[C@]4(C)O` (stereo partly drawn), the inhibition at 10 µg/mL in the assay with PBMC [1] is 100%; in the assay with PBMC [2], 76%; with PBMC [3] it was 49%; in the assay on PBMC [4] it was 97%; with PBMC [5] it was 92%; in the assay on PBMC [6] it was 100%.

Take `CC(=O)OC[C@]12[C@H](OC(C)=O)[C@H](OC(C)=O)[C@@H]3[C@@H](OC(C)=O)[C@@]14O[C@@]3(C)COC(=O)c1cccnc1C(C)C(C)C(=O)O[C@@H]([C@H](OC(C)=O)[C@@H]2OC(C)=O)[C@]4(C)O` (stereo partly drawn) [EUONYMINE]: the inhibition at 10 µg/mL came to 11% in the assay with PBMC [1]; 55% in the assay on PBMC [2]; 47% with PBMC [3]; 31% in the assay with PBMC [4]; 28% in the assay with PBMC [5]; 53% in the assay on PBMC [6].

Take `CC(=O)OC[C@]12[C@H](OC(C)=O)[C@H](OC(C)=O)[C@@H]3[C@@H](OC(C)=O)[C@@]14O[C@@]3(C)COC(=O)c1cccnc1CC[C@@](C)(O)C(=O)O[C@@H]([C@H](OC(C)=O)[C@@H]2OC(C)=O)[C@]4(C)O`: the inhibition entry with PBMC [1], with PBMC [2], in the assay with PBMC [3], with PBMC [4], in the assay on PBMC [5] and with PBMC [6] was “inactive” each time.

`CC(=O)OC[C@]12[C@H](OC(C)=O)[C@H](OC(C)=O)[C@@H]3[C@@H](OC(C)=O)[C@@]14O[C@@]3(C)COC(=O)c1cccnc1CC[C@@](C)(OC(=O)c1ccco1)C(=O)O[C@@H]([C@H](OC(C)=O)[C@@H]2OC(C)=O)[C@]4(C)O`: the inhibition entry in the assay with PBMC [1], in the assay on PBMC [2], with PBMC [3], in the assay with PBMC [4], in the assay with PBMC [5] and in the assay on PBMC [6] was “inactive” in each case.

On to `CC(=O)OC[C@]12[C@H](OC(C)=O)[C@H](OC(C)=O)[C@@H]3[C@@H](OC(C)=O)[C@@]14O[C@@]3(C)COC(=O)c1cccnc1CC[C@@](C)(OC(=O)c1ccccc1)C(=O)O[C@@H]([C@H](OC(C)=O)[C@@H]2OC(C)=O)[C@]4(C)O` [WILFORNINE A], for which the inhibition at 10 µg/mL with PBMC [1] was 50%; in the assay on PBMC [2], 0%; with PBMC [3] it was -4%; with PBMC [4] it was 2%; in the assay on PBMC [5] it was 8%; with PBMC [6], 23%.

With `CC(=O)OC[C@]12[C@H](OC(C)=O)[C@H](OC(C)=O)[C@@H]3[C@@H](OC(C)=O)[C@@]14O[C@@]3(C)COC(=O)c1cccnc1C(C)C(C)C(=O)O[C@@H]([C@H](OC(C)=O)[C@@H]2OC(=O)c1ccccc1)[C@]4(C)O` (stereo partly drawn) [MAYTEINE], the inhibition at 10 µg/mL with PBMC [1] is 14%; in the assay with PBMC [2] it was -9%; with PBMC [3] it was 2%; in the assay with PBMC [4] it was 2%; in the assay on PBMC [5], 36%; in the assay on PBMC [6], 55%.

`CC(=O)OC[C@]12[C@H](OC(C)=O)[C@H](OC(C)=O)[C@@H]3[C@@H](OC(C)=O)[C@@]14O[C@@]3(C)COC(=O)c1cccnc1CC[C@H](C)C(=O)O[C@@H]([C@H](OC(C)=O)[C@@H]2OC(C)=O)[C@]4(C)O` [WILFORMINE]: the inhibition at 10 µg/mL stood at 77% in the assay with PBMC [1]; 20% in the assay on PBMC [2]; 14% in the assay with PBMC [3]; 60% in the assay on PBMC [4]; 71% with PBMC [5]; 50% in the assay on PBMC [6].

With `CC(=O)OC[C@]12[C@H](OC(C)=O)[C@H](OC(C)=O)[C@@H]3[C@@H](OC(C)=O)[C@@]14O[C@@]3(C)COC(=O)c1cnccc1C(C)C(C)C(=O)O[C@@H]([C@H](OC(C)=O)[C@@H]2O)[C@]4(C)O` (stereo partly drawn), the inhibition entry with PBMC [1], with PBMC [2], with PBMC [3], with PBMC [4], in the assay on PBMC [5] and in the assay on PBMC [6] was “inactive” each time.

In the case of `CC(=O)OC[C@]12[C@H](OC(C)=O)[C@H](OC(C)=O)[C@@H]3[C@@H](OC(=O)c4ccccc4)[C@@]14O[C@@]3(C)COC(=O)c1cnccc1C(C)C(C)(O)C(=O)O[C@@H]([C@H](OC(=O)c1ccccc1)[C@@H]2OC(C)=O)[C@]4(C)O` (stereo partly drawn), the inhibition entry with PBMC [1], in the assay with PBMC [2], in the assay on PBMC [3], in the assay on PBMC [4], with PBMC [5] and in the assay with PBMC [6] was “inactive” each time.

Take `CC(=O)OC[C@]12[C@H](OC(C)=O)[C@H](OC(C)=O)[C@@H]3[C@@H](OC(C)=O)[C@@]14O[C@@]3(C)COC(=O)c1cnccc1C(C)C(C)(O)C(=O)O[C@@H]([C@H](OC(=O)c1ccccc1)[C@@H]2OC(C)=O)[C@]4(C)O` (stereo partly drawn) [HYPOGLAUNINE C]: the inhibition at 10 µg/mL was 51% with PBMC [1]; -28% in the assay on PBMC [2]; 2% in the assay on PBMC [3]; -26% in the assay with PBMC [4]; 20% in the assay on PBMC [5]; 57% in the assay with PBMC [6].
